Laboratory results from PMC6017654, “Ionic Liquid-Promoted Synthesis of Novel Chromone-Pyrimidine Coupled Derivatives, Antimicrobial Analysis, Enzyme Assay, Docking Study and Toxicity Study” (Molecules : A Journal of Synthetic Chemistry and Natural …, 2018).
Values after ≈ are worked out from the molar mass of the structure shown.

What was measured:
DdlB from E.coli = DdlB from E.coli (Escherichia coli, UniProt P07862); assay: D-Alanine-D-alanine ligase (DdlB) enzyme inhibition, malachite green method; format: biochemical; conditions: 37 °C, 30 min incubation, 5% DMSO
Protocol: The key enzyme involved in the peptidoglycan biosynthesis is D-alanine-D-alanine ligase (Ddl), making it an important target for drug discovery. Inhibition of DdlB as an essential enzyme in either Gram-positive or Gram-negative organisms leads to the loss of cell shape and integrity followed by bacterial death. The synthesized derivatives 4(a–f) and 6(a–f) were tested for their inhibitory activity on DdlB from E.coli. The results are presented as IC50 values.
The D-Ala-adding activity of DdlB ligase was monitored by the detection of orthophosphate generated during the reaction based on the colorimetric malachite green method described by Walsh et al.. […] All the compounds were soluble in the assay mixture containing 5% DMSO. After 30 min of incubation, 100 µL Biomol reagent was added. After 5 min, absorbance was read at 650 nm. Residual activity was calculated with respect to a similar assay without inhibitor. To exclude possible non-specific (promiscuous) inhibitors, representative compounds 4(a–f) and 6(a–f) were also tested in the presence of Tween (0.003%), Triton X-114 (0.005%), and SDS (420 µM), as described by McGovern et al.. No significant differences were found when compared to measurements without detergents.

Escherichia coli 1411 = assay: In vitro antibacterial activity (MIC100, two fold serial dilution, NCCLS); format: cell-based; conditions: Escherichia coli, 1411, 24 h, read-out: MIC100
Protocol: (§1) All the synthesized compounds 4(a–f) and 6(a–f) were screened for their in vitro antibacterial activity against Staphylococcus aureus (NCIM-2901), Escherichia coli 1411 (standard laboratory strains) and Escherichia coli SM1411 (an acrAB deficient derivative of 1411). Minimum inhibitory concentration (MIC100) values were determined using methods recommended by National Committee for Clinical Laboratory Standards (NCCLS). Dimethyl sulfoxide (DMSO) was used as solvent control.
(§2) All the synthesized compounds 4(a–f) and 6(a–f) were screened for their in vitro antibacterial activity against Staphylococcus aureus (NCIM-2901) and Escherichia coli 1411 (standard laboratory strains) and Escherichia coli SM1411 (an acrAB deficient derivative of 1411). Minimum inhibitory concentration (MIC100) values were determined using the method recommended by National Committee for Clinical Laboratory Standards (NCCLS). In vitro antibacterial activities of the synthesized compounds 4(a–f) and 6(a–f) were tested in Nutrient Broth (NB) for Bacteria by the two fold serial dilution method. Seeded broth (broth containing microbial spores) was prepared in NB from 24 h old bacterial cultures on nutrient agar (Hi-media) at 37 ± 1 °C. The bacterial suspension was adjusted with sterile saline to a concentration of […]. The synthesized compounds and standard drug D-cycloserine were prepared by two fold serial dilutions to obtain the required concentrations. The tubes were incubated in BOD incubators at 37 ± 1 °C for bacteria. The MICs were recorded by visual observations after 24 h (for bacteria) of incubation.

[1] = tested on: Escherichia coli SM1411 (an acrAB deficient derivative of 1411); assay: as above; format: cell-based; conditions: 24 h, read-out: MIC100
Protocol: as §1, §2

[2] = tested on: Staphylococcus aureus (NCIM-2901); assay: as above; format: cell-based; conditions: Staphylococcus aureus, NCIM2901, 24 h, read-out: MIC100, S. aureus NCIM-2901, average of three readings
Protocol: as §1, §2

A. flavus = assay: In vitro antifungal activity (MIC100, CLSI/NCCLS); format: cell-based; conditions: Aspergillus flavus; A. fla.; average of three readings; read-out: MIC 100
Protocol: (§3) The newly synthesized derivatives 4(a–f) and 6(a–f) were screened for their in vitro antifungal activity against different yeast and filamentous fungal pathogens. Minimum inhibitory concentration (MIC100) values for in vitro antifungal activity were determined by the methods recommended by National Committee for Clinical Laboratory Standards (NCCLS). Miconazole was used as standard drug. Dimethyl sulfoxide (DMSO) was used as solvent control.
(§4) In vitro antifungal activity was determined as per CLSI (formerly, NCCLS) guidelines. […] The medium yeast nitrogen base was dissolved in phosphate buffer pH 7 and it was autoclaved at 110 °C for 10 min. With each set a growth control without the antifungal agent and solvent control DMSO were included. The fungal strains were freshly sub cultured on to Sabouraud dextrose agar (SDA) and incubated at 25 °C for 72 h. The fungal cells were suspended in sterile distilled water and diluted to get 10^5 cells/mL. Further, ten microlitres of the standardized suspension was inoculated onto the control plates and the media incorporated with the antifungal agents. The inoculated plates were incubated at 25 °C for 48 h. The readings were taken at the end of 48 h and 72 h. The MIC was the lowest concentration of drug preventing growth of macroscopically visible colonies on drug containing plates when there was visible growth on the drug free control plates.

Aspergillus fumigates = assay: In vitro antifungal activity (MIC100, CLSI/NCCLS); format: cell-based; conditions: A. fum., average of three readings, read-out: MIC 100
Protocol: as §3, §4

Aspergillus niger = assay: In vitro antifungal activity (MIC100, CLSI/NCCLS); format: cell-based; conditions: A. nig., average of three readings, read-out: MIC 100
Protocol: as §3, §4

Candida albicans = assay: In vitro antifungal activity (MIC100, CLSI/NCCLS); format: cell-based; conditions: C. alb., average of three readings, read-out: MIC 100
Protocol: as §3, §4

Candida glabrata = assay: In vitro antifungal activity (MIC100, CLSI/NCCLS); format: cell-based; conditions: Nakaseomyces glabratus; C. glab.; average of three readings; read-out: MIC 100
Protocol: as §3, §4

Cryptococcus neoformans = assay: In vitro antifungal activity (MIC100, CLSI/NCCLS); format: cell-based; conditions: C. neo., average of three readings, read-out: MIC 100
Protocol: as §3, §4

Fusarium oxysporum = assay: In vitro antifungal activity (MIC100, CLSI/NCCLS); format: cell-based; conditions: F. oxy., average of three readings, read-out: MIC 100
Protocol: as §3, §4

[3] = In vitro cytotoxicity, Sulforhodamine B (SRB) assay; format: cell-based, human; conditions: human, range 80 to 0.55 μg/mL
Source text: (§5) Toxicity scrutiny of synthesized compounds at the early phase of research paves the way to clinical trials and reduces the failure of potential therapeutics at later stages of clinical trials. To scrutinize the safety and selectivity of antimicrobial activity of the synthesized compounds, the compounds 6c and 6f were appraised for their toxicity against HeLa (a human cervical cancer cell line) and PC-3 (human prostate cancer cell line) by the Sulforhodamine B (SRB) assay using adriamycin as a standard drug.
(§6) The images were captured using an Eclipse Ti-S Inverted Research Microscope (Nikon, Tokyo, Japan). Image processing software used was NIS-Elements.

[4] = tested on: HeLa (human cervical cancer cell line); assay: as above; format: cell-based; conditions: up to 80 µg/mL
Source text: as §5, §6

Swiss albino mice = assay: In vivo acute oral toxicity study and gross behavioral study (OECD guideline No. 425)
Protocol: The in vivo acute oral toxicity and gross behavioral study results of the newly synthesized compounds 6c and 6f are as listed in Table 12 [26].
Each group, consisting of six Swiss albino mice (18–22 gm weight, overnight fasted), were kept in colony cage at 25 ± 2 °C with 55% relative humidity and 12 h of light and dark cycle. A specified dose of 100, 250, 500, 750, 1000, 1500 and 2000 mg/kg body weight of mice was administered orally as a single dose. The acute toxic symptoms and the behavioral changes produced by the test compounds were observed continuously for 4 h periods at 8th, 12th and 24th h on set of toxic symptoms and the gross behavioral changes were also recorded. These animals were maintained for further 10 days with observation made daily. The in vivo acute oral toxicity study was carried out at animal house at the Y.B. Chavan College of Pharmacy, Aurangabad IAEC approval number CPCSEA/IAEC/P’col-52/2015-16/115 [26].

[5] = tested on: ergosterol biosynthesis in Candida albicans (NCIM-3471); assay: Ergosterol extraction and quantitation assay (UV sterol profile); format: cell-based; conditions: C. albicans NCIM3471; 6f 24 µg/mL, miconazole 25 µg/mL; 281.5 nm
Protocol: Changes in this absorption pattern are therefore indicative of interference in the synthetic pathway of ergosterol.
A single Candida albicans (NCIM-3471) colony from an overnight Sabouraud dextrose agar plate culture was used to inoculate 50 mL of Sabouraud dextrose broth for control and for various concentrations of the molecules. The cultures were incubated for 16 hours and harvested by centrifugation at 2700 rpm (856× g) for five min. The net weight of the cell pellet was determined. Three mL of 25% alcoholic potassium hydroxide solution was added to each pellet and vortex mixed for one min. Cell suspensions were transferred to sterile borosilicate glass screw-cap tubes and were incubated in an 85 °C water bath for one hour. Following incubation, the tubes were allowed to cool. Sterols were then extracted by addition of a mixture of 1 mL of sterile distilled water and 3 mL of n-heptane followed by vigorous vortex mixing for 3 min. The heptane layer was transferred to a clean borosilicate glass screw-cap tube and stored at −20 °C. Prior to analysis, 0.6 mL aliquot of sterol extract was diluted five fold in 100% ethanol and scanned spectrophotometrically between 240 nm and 300 nm with a spectrophotometer (UV-Visible Spectrophotometer 2100, Thermo Fischer Scientific, Waltham, MA, USA). The presence of ergosterol and the late sterol intermediate 24(28)-dehydroergosterol (DHE) in the extracted sample results in a characteristic four-peaked curve. The absence of detectable ergosterol in extracts was indicated by a flat line.
Sterols were extracted from cells and spectral profiles between 240 and 300 nm were determined.

Row | ergosterol peak in UV sterol profile at the MIC value [5] | Structure (SMILES) | IC50 (DdlB from E.coli) | MIC (Escherichia coli 1411) | MIC [1] | MIC [2] | MIC (A. flavus) | MIC (Aspergillus fumigates) | MIC (Aspergillus niger) | MIC (Candida albicans) | MIC (Candida glabrata) | MIC (Cryptococcus neoformans) | MIC (Fusarium oxysporum) | GI50 ([3]; HeLa cells, SRB assay) | GI50 ([3]; PC-3 cells) | cell inhibition [4] | No. of Deaths (Swiss albino mice; Swiss albino mice, single oral dose 100 to 2000 mg/kg) | lethal dose (Swiss albino mice; mice, oral, single dose, no mortality up to 2000 mg/kg)
1 | – | CC1=C(C(=O)NN)C(c2coc3ccc(F)cc3c2=O)NC(=O)N1 (centres unmarked) [Compound 6c, 4-(6-Fluoro-4-oxo-4H-chromen-3-yl)-6-methyl-2-oxo-1,2,3,4-tetrahydropyrimidine-5-carbohydrazide] | 106 µM | 14 µg/mL (≈ 42.1 µM) | 14 µg/mL (≈ 42.1 µM) | 32 µg/mL (≈ 96.3 µM) | 42 µg/mL (≈ 126 µM) | 60 µg/mL (≈ 181 µM) | 40 µg/mL (≈ 120 µM) | 52 µg/mL (≈ 156 µM) | 52 µg/mL (≈ 156 µM) | 40 µg/mL (≈ 120 µM) | 58 µg/mL (≈ 175 µM) | > 80 µg/mL | > 80 µg/mL | cell inhibition did not occur | N | above 2000 mg/kg body weight
2 | inhibition of ergosterol | Clc1ccc(COC(Cn2ccnc2)c2ccc(Cl)cc2Cl)c(Cl)c1 (centres unmarked) [Miconazole, reference compound] | – | – | – | – | 12 µg/mL (≈ 28.8 µM) | 35 µg/mL (≈ 84.1 µM) | 12 µg/mL (≈ 28.8 µM) | 25 µg/mL (≈ 60.1 µM) | 25 µg/mL (≈ 60.1 µM) | 12 µg/mL (≈ 28.8 µM) | 25 µg/mL (≈ 60.1 µM) | – | – | – | – | –
3 | – | COc1cccc2c1C(=O)c1c(O)c3c(c(O)c1C2=O)C[C@@](O)(C(=O)CO)C[C@@H]3O[C@H]1C[C@H](N)[C@H](O)[C@H](C)O1 [Adriamycin, reference compound] | – | – | – | – | – | – | – | – | – | – | – | 0.5 µg/mL (≈ 0.92 µM) | 0.5 µg/mL (≈ 0.92 µM) | – | – | –
